Reference: patent publication US5444151A, “Platelet derived growth factor antagonists” (Ludwig Institute for Cancer Research, priority 1992, dated 1995)
“Also recorded” adds a separate entry of the source. Numbered stars: 1 amine (or outer) side, 2 acyl side, 3 side chain; on linkers, the order of the positions; unused ones are H or OH. Square brackets hold non-standard residues; d marks the D form. Peptide text beside a SMILES is read from it. X1 = CSc1ccc(-c2[nH]c3ccccc3c2C[C@H](N[*:1])C(=O)[*:2])cc1

Assays:
PDGF receptors = test: PDGF-BB induced receptor dimerization and autophosphorylation in intact cells; assay type: cell-based, human; settings: PDGF-BB 300 ng/ml, intact fibroblasts
Experimental: (§1) Confluent human foreskin fibroblast cells were used (25 cm^2 dishes of cultures). The cells were washed twice with binding buffer, as described supra, with 1 mg/ml BSA added thereto. This was followed by 90 minutes of incubation with one of synthetic peptides 16, […], 20 and […] on ice. […] A dimerization assay was then carried out, basically following Eriksson et al., Growth Factors 6: 1-14 (1992). Essentially, receptors were cross linked for 20 minutes at room temperature in 1 mM BS^3 (Bis(sulfosuccinimidyl)suberate) in lysis buffer (0.5% Triton X-100, 0.5% deoxycholate, […], pH 7.4, 150 mM NaCl, 10 mM EDTA, 1 mM PMSF (phenylmethylsulfonyl fluoride), 1% Trasylol (aprotinin), 100 μM ortovandat, a phosphatase inhibitor). Cross linking was quenched by adding 70 mM methylammonium chloride for 10 minutes. Samples were then subjected to SDS gel electrophoresis in 4% slab gels, followed by electroblotting on to nitrocellulose membranes. The blocked membranes were incubated for two hours with affinity purified phosphotyrosine antibodies (Ek et al., J. Biol. Chem. 259: 1145-11152 (1984)), followed by three washes. Blots were then incubated for 45 minutes with peroxidase conjugated, affinity purified swine antirabbit IgG immunoglobulin. After an additional three washes, complexes were visualized using the ECL developing system.

[1] = tested on: human foreskin fibroblast cells; test: Inhibition of 125I-ligand internalization and degradation (TCA non-precipitatable radioactivity); assay type: cell-based; settings: four hours at 37° C.
Experimental: To do this, confluent human foreskin fibroblast cells in 12 well dishes were washed once with 1.0 ml of Ham's F-12 medium, supplemented with 1 mg/ml BSA. As described supra, those cells to be tested later for ^125 I-PDGF-BB degradation were preincubated with PDGF-AA to down regulate α receptors. […] The mixtures were incubated for four hours at 37° C., the incubation medium was removed, and then precipitated with trichloroacetic acid at 10% final concentration. The amount of trichloroacetic acid non-precipitatable radioactivity in cell culture medium was taken as an estimate of ligand degradation--i.e., it represents ligand that had been internalized, degraded and released into the medium in the form of free ^125 I, ^[…] or low molecular weight fragments. This parameter was defined after four hours of incubation at 37° C.

EGF receptor [2] = target: T1, EGF receptor (Homo sapiens, UniProt P00533); test: EGF induced receptor dimerization and autophosphorylation in intact cells; assay type: cell-based; settings: EGF 300 ng/ml, intact fibroblasts
T1 construct: cultures of human foreskin fibroblast cell line AG1518; endogenous in cells; host or cells: human foreskin fibroblasts (AG1518)
T1 sequence (P00533 25-1210): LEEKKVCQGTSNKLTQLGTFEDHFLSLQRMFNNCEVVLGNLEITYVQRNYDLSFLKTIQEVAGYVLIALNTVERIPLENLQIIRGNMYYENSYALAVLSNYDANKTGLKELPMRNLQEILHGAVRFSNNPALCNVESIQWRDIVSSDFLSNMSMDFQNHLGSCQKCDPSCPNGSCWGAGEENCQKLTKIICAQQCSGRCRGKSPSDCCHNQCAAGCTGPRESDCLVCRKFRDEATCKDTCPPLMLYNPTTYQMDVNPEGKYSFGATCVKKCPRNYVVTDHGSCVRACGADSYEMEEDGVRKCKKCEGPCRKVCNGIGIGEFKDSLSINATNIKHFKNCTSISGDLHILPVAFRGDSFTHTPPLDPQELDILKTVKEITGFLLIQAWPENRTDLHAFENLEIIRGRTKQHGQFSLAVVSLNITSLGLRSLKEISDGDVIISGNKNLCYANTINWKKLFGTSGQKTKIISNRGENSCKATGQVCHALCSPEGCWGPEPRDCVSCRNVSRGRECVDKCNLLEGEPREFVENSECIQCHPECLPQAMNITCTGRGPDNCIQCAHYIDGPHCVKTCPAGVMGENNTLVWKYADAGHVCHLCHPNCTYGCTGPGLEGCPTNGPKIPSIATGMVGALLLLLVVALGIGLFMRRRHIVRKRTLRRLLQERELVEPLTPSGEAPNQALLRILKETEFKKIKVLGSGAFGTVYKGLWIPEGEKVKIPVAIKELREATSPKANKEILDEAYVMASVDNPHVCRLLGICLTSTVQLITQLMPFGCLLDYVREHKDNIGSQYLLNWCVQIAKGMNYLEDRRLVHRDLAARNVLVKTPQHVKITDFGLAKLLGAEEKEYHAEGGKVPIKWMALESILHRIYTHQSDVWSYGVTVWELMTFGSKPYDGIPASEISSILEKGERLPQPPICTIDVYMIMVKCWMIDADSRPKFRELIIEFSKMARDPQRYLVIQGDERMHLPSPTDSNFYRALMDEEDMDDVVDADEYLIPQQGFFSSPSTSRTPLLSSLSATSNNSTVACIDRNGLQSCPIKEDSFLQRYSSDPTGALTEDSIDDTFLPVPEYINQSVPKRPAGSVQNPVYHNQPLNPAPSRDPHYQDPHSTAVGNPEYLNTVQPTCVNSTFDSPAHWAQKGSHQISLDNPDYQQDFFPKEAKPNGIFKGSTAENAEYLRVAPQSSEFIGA
Experimental: as §1

PDGF-β receptor [3] = target: T2, PDGF-β receptor (Sus scrofa, UniProt A0A8W4FFG6); test: Autophosphorylation and dimerization of partially purified PDGF-β receptor; assay type: biochemical, porcine; settings: nearly complete for 16T, complete for 16; about 100 ng receptor, 100 ng PDGF-BB, 40 ul
T2 construct: from Triton X-100 solubilized porcine uterus membranes and purified up to the Mono-Q chromatography step; from tissue; host or cells: porcine uterus membranes
T2 sequence (A0A8W4FFG6 32-1102): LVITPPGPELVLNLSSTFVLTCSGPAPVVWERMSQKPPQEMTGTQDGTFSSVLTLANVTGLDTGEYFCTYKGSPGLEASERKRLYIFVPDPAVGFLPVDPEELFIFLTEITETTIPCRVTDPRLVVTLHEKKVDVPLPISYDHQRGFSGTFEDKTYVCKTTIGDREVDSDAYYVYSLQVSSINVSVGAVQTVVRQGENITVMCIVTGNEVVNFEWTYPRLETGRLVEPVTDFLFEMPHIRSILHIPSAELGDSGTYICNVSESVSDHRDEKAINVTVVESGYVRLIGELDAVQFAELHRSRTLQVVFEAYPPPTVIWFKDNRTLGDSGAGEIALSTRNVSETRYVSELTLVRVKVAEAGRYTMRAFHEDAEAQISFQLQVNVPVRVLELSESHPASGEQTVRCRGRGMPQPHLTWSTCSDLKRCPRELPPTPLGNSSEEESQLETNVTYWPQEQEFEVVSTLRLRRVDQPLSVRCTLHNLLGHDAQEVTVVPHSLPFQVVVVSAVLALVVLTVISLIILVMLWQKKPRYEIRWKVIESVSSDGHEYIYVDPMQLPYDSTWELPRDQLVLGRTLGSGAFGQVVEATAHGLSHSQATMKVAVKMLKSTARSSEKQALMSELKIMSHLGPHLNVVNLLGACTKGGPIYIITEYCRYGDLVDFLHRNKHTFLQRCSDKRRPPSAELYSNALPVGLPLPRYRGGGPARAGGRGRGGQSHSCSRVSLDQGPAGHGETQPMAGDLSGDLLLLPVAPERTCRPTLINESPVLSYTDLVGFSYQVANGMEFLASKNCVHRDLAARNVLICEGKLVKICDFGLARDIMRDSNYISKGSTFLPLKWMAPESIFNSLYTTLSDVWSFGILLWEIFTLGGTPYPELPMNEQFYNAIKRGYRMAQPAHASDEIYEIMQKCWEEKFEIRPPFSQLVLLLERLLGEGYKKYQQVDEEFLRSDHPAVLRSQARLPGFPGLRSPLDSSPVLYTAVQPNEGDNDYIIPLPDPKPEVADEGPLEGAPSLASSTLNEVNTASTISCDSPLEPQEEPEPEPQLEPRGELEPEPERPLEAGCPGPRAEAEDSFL
Experimental: A preparation of PDGF-β receptor, from Triton X-100 solubilized porcine uterus membranes and purified up to the Mono-Q chromatography step of Ronnstrand et al., J. Biol. Chem. 262: 2929-2932 (1987), was made, and the autophosphorylation assay described therein was carried out.
Approximately 100 ng of the receptor was incubated for 5 minutes at 0° C. with peptide 16T or peptide 20, at different concentrations. […] Four ul of 150 μM [^32 P]ATP (containing 5×10^6 cpm of radioactivity) was added, followed by an additional 10 minutes of incubation at 0° C. Incorporation of radioactivity was terminated by adding 5 μl of 15 mM unlabelled ATP and 5 μl of 40 mM phenylphosphate. Samples were cross linked by incubating with 0.5 mM DSS (12.5 mM, in dimethyl sulfoxide) for 30 minutes at room temperature. The cross linking reaction was blocked by adding 50 mM methylammonium chloride, 20 mM Hepes, pH 7.4.

PDGF-α or β receptors = test: PDGF receptor internalization and down regulation; assay type: cell-based, human; settings: four hours at 37° C.; surface receptors estimated with 125I-PDGF-BB
Experimental: As binding of PDGF to receptors leads to receptor internalization and down regulation, investigations were carried out to determine whether the interaction of PDGF and peptide […] led to the internalization and down regulation of receptors. To test this, confluent cells, as described supra, were washed once with binding buffer at 37° C., followed by incubation with different concentrations of synthetic peptide (0.5 ml of PBS containing 1 mg/ml BSA). Following this, the cells were incubated at 37° C. for four hours, followed by washing with 1 ml of ice cold buffer consisting of 20 mM Na-acetate, 150 mM NaCl, 0.2% BSA adjusted to pH 3.7 with acetic acid. The cells were then incubated for 10 minutes on ice in buffer, followed by two washings with 1 ml binding buffer, at pH 7.4. The number of PDGF receptors on the cell surface was estimated by incubation with ^125 I-PDGF-BB (~50,000cpm) in 0.5 ml binding buffer for 60 minutes on ice, followed by washing, lysis and determination of cell bound radioactivity.

[4] = tested on: human foreskin fibroblasts; test: Ligand stimulated [3H]thymidine incorporation; assay type: cell-based
From the text: The possible role of peptide 16T as an antagonist for PDGF activity in vivo was investigated. Following the methodology of Betsholtz et al., J. Cell Physiol 118: 203-210 (1984), the disclosure of which is incorporated by reference, [^3 H] thymidine incorporation by human fibroblasts in the presence of various peptides was studied.

PDGF-β receptor [5] = target: T3, PDGF-β receptor (Homo sapiens, UniProt P09619); test: Competition with 125I-PDGF-BB for binding to AG1518 fibroblasts (α receptor down regulated by PDGF-AA preincubation); settings: AG1518 cells, competing activity
T3 construct: cultures of human foreskin fibroblast cell line AG1518; endogenous in cells; host or cells: AG1518 human foreskin fibroblasts (Human Mutant Cell Repository)
T3 sequence (P09619 33-1106): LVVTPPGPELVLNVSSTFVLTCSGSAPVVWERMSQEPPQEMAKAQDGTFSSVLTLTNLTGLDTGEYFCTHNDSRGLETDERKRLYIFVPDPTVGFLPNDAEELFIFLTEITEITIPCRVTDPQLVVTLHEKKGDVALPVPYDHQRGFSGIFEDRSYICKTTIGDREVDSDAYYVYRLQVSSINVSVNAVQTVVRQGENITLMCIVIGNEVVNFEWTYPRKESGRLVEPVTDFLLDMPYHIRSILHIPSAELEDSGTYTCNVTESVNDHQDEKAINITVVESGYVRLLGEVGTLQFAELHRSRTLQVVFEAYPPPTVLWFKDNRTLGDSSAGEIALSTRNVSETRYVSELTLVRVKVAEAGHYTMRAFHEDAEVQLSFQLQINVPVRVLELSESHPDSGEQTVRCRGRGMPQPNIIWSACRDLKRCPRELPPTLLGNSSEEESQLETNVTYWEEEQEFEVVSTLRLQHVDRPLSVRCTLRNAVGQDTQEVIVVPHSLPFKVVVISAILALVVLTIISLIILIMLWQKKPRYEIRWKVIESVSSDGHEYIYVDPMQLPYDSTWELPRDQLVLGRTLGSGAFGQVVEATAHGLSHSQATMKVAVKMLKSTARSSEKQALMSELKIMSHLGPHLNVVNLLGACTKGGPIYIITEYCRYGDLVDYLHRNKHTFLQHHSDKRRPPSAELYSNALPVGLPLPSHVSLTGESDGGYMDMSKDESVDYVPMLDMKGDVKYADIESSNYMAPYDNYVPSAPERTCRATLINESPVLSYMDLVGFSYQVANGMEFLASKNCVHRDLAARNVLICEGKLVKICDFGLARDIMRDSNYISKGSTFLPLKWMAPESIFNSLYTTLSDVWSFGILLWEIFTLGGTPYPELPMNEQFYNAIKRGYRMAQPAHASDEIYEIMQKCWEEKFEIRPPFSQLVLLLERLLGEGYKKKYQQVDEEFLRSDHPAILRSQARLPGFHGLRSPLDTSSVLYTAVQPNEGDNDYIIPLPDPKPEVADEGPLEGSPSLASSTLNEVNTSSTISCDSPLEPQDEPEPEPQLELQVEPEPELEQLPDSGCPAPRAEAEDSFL
Experimental: (§2) In order to test for receptor binding, cultures of human foreskin fibroblast cell line AG1518 (obtained from the Human Mutant Cell Repository), were grown to confluence in Ham's F-12 medium containing 10% newborn calf serum. Those cells which were to be used in analysis of PDGF-β receptor binding were preincubated for 60 minutes at 37° C. in 0.5 ml/well of Ham's F-12 medium, supplemented with 1 mg/ml of bovine serum albumin (BSA), and 50 ng/ml of PDGF-AA. This combination down regulates PDGF-α receptor, as per Claesson-Welsh et al., J. Biol. Chem. 264: 1742-1747 (1989).
(§3) Cells were prepared for receptor binding analyses by washing with ice cold binding buffer (phosphate buffered saline with 0.9 mM CaCl2, 0.49 mM MgSO4 and 1 mg/ml BSA). The cells were then incubated on ice for 90 minutes with different concentrations (0-100 ug/ml) of synthetic peptides (listed in Table 1, infra), in 0.5 ml of binding buffer per well. […] The labelled ligand was added and then incubated for 60 minutes at 0° C. after which the cells were washed five times with ice cold binding buffer. The washed cells were then lysed for 60 minutes at room temperature in a lysis buffer (1% Triton X-100, 10% glycerol, 20 mM Tris-HCl, pH 7.5). Solubilized radioactivity was determined in a gamma counter. Competing activities of synthetic peptides were compared to standard curves, using unlabelled ligand.
In Table 2, "+++" means <30 μM; "++" from 30-60 μM; "+" 60-150 μM; and "-", >150 μM.

PDGF-α receptor = target: T4, PDGF-α receptor (Homo sapiens, UniProt P16234); test: Competition with 125I-PDGF-AA for binding to AG1518 fibroblasts
T4 construct: cultures of human foreskin fibroblast cell line AG1518; endogenous in cells; host or cells: AG1518 human foreskin fibroblasts
T4 sequence (P16234 24-1089): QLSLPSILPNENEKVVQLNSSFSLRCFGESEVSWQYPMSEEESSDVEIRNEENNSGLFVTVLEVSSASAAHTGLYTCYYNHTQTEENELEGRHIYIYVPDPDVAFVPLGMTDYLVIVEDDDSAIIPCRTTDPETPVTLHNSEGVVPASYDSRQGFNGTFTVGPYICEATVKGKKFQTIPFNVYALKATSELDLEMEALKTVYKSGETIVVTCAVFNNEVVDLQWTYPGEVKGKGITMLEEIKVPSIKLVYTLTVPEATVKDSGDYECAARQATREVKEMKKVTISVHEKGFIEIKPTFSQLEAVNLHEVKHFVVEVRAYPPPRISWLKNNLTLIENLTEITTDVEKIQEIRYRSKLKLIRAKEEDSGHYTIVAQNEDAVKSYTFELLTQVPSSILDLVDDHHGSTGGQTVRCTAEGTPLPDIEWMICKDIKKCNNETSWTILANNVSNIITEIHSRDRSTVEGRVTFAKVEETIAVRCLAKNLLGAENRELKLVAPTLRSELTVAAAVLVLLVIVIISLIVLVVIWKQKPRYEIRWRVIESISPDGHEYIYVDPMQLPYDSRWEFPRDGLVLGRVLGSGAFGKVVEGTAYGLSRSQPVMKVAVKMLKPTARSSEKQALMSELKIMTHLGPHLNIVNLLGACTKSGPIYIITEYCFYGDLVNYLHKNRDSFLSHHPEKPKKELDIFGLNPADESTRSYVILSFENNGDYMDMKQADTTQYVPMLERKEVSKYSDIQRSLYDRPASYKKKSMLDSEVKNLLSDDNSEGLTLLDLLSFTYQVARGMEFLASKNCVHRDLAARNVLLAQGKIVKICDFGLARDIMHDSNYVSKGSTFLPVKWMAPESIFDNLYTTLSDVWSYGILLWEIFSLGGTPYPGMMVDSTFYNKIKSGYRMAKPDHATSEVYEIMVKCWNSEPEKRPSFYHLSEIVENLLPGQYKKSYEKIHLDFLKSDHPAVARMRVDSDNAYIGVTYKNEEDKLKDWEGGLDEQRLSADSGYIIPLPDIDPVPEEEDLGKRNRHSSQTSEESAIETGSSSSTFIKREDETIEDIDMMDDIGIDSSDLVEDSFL
Experimental: as §2, §3

EGF receptor [6] = target: T1, EGF receptor; test: Competition with 125I-EGF for binding to AG1518 fibroblasts
Experimental: as §2, §3

## CC[C@H](C)[C@H](NC(=O)[C@H](CCC(=O)O)NC(=O)[C@H](Cc1c(-c2ccc(SC)cc2)[nH]c2ccccc12)NC(=O)[C@@H](NC(=O)[C@H](CC(C)C)NC(=O)[C@H](Cc1ccccc1)NC(=O)[C@H](CC(N)=O)NC(=O)[C@H](C)N)C(C)C)C(=O)N[C@H](C(=O)N[C@@H](CCCNC(=N)N)C(=O)N[C@@H](CCCCN)C(=O)N[C@@H](CCCCN)C(=O)N1CCC[C@H]1C(=O)O)C(C)C [*16T, Ala Asn Phe Leu Val Xaa Glu Ile Val Arg Lys Lys Pro] (H-ANFLV[X1]EIVRKKP-OH; N-terminus and C-terminus assumed)
PDGF receptors
  Inhibition of PDGF induced autophosphorylation and dimerization: about 55%
[1]
  Inhibition of 125I-PDGF-AA degradation (in words): most effective
[1]; α receptors down regulated
  Inhibition of 125I-PDGF-BB degradation (in words): most potent
EGF receptor [2]
  Effect on EGF induced autophosphorylation and dimerization (in words): no effect
PDGF-β receptor [3]
  Amount of peptide giving complete inhibition of dimerization and autophosphorylation: 5 µg
PDGF-α or β receptors
  Down regulation of PDGF receptors (in words): did not downregulate
[4]; PDGF-AA, PDGF-BB or EGF stimulation
  Effect on ligand stimulated [3H]thymidine incorporation (in words): did inhibit PDGF-AA and PDGF-BB induced mitogenicity, but also EGF induced mitogenicity
[4]; no ligand
  Effect on background [3H]thymidine incorporation (in words): lowered background incorporation of [^3 H] thymidine dramatically
[4]; peptide present, no ligand, mean of duplicates
  [3H]thymidine incorporation, Control: 46 cpm
[4]; peptide present, stimulated with EGF, mean of duplicates
  [3H]thymidine incorporation, EGF: 119 cpm
[4]; peptide present, stimulated with PDGF-AA, mean of duplicates
  [3H]thymidine incorporation, PDGF-AA: 90 cpm
[4]; peptide present, stimulated with PDGF-BB, mean of duplicates
  [3H]thymidine incorporation, PDGF-BB: 102 cpm
PDGF-β receptor [5]
  Receptor competing activity, PDGF-BB binding (in words): effective competitor; also recorded: far more efficient in competing with PDGF for receptor binding
PDGF-α receptor; AG1518 cells
  Receptor competing activity, PDGF-AA binding (in words): higher activity; also recorded: effective competitor
PDGF-α receptor; α receptor
  50% competition for receptor binding: Forty-four
EGF receptor [6]
  Competition for binding of 125I-EGF to the EGF receptor (in words): none of peptides 16, 16T, 20 and 20T compete
